Drawing on US20260182217A1, “DISPLAY PANEL, ELECTRONIC DEVICE INCLUDING THE SAME, AND METHOD FOR MANUFACTURING THE DISPLAY PANEL” (priority 2024, published 2026), this text covers pKa for one compound.

The series can be described thus: physchem.

Structures are written as SMILES.

For `CCCCCCCCC(=O)O` [A11], the pKa was 5.
